Assay [1] deals with HeLa. Nature of the assay: Cytotoxicity against human HeLa cells after 72 hrs by MTT assay. Type of assay: cell-based. Background: Tetrazolium dyes change colour on reduction, which living cells bring about.
Assay [2] deals with Plasmodium falciparum. Nature of the assay: Antiplasmodial activity against Plasmodium falciparum 3D7 […] after 72 hrs by NBT dye based LDH assay. Type of assay: functional, organism-based. The settings on record: 3D7, 72 h.

As a reminder, the IC50 is the point on the concentration scale where inhibition reaches its midpoint. A lower IC50 goes with higher potency. With `CC[C@H](C)[C@H](NC(=O)[C@H](CC(C)C)N(C)C(=O)CCCCCCCCNC(=O)CCCc1ccc(O)cc1)C(=O)N(C)[C@@H](C(=O)N[C@@H](CCC(N)=O)C(=O)N1CCC[C@H]1C(=O)N(C)[C@@H](Cc1ccccc1)C(=O)N1CCC[C@H]1C(=O)OC)C(C)C`, the IC50 in assay [1] turned out to be 29 µM; in assay [2] it was 1 µM.
As to `CC[C@H](C)[C@H](NC(=O)[C@H](CC(C)C)N(C)C(=O)CCCCCNC(=O)CCCc1ccc(O)cc1)C(=O)N(C)[C@@H](C(=O)N[C@@H](CCC(N)=O)C(=O)N[C@H](C(=O)N(C)[C@H](Cc1ccccc1)C(=O)N1CCC[C@H]1C(=O)OC)C(C)C)C(C)C`, the IC50 in assay [1] amounted to 14 µM; in assay [2] it was 0.52 µM.

The record behind these values is ChEMBL document CHEMBL4266036, “Hoshinoamides A and B, Acyclic Lipopeptides from the Marine Cyanobacterium Caldora penicillata” (J Nat Prod, 2018).
